The source of these data is patent US20210251220A1, “LICE ELIMINATOR” (priority 2018, published 2021).

The nature of the series: Contact angle of spreading component. The series is classed as physicochemical. The note with it: 10% by weight aqueous solution, droplet on stainless steel plate, θ/2 method (JIS R3257). As to the method:
It is preferred that the contact angle of the spreading component to be mixed in the lice eliminator according to the present invention is 1 to 60°. When the contact angle on a solid surface of the spreading component to be mixed in the lice eliminator according to the present invention is in this range, the lice eliminator spreads wet and is easily taken onto a louse, for example, easily adheres to and spreads out over the outer skin of a louse, without being repelled by the outer skin when brought into contact with the louse, and the effect of exterminating a louse by blocking the louse from the outside, for example, by sealing the spiracle of the louse becomes higher. It is preferred that the contact angle of the spreading component contained in the lice eliminator of the present invention is measured by a θ/2 method or the like in accordance with the method described in JIS R3257 (1999) or the like. When the spreading component is soluble in water and is solid, the contact angle as an aqueous solution, for example, at 10% by weight or the like is measured. When the spreading component is not soluble in water and is in a liquid state, the contact angle is measured as the stock solution, and when the spreading component is soluble in water and is in a liquid state, the contact angle is measured as the stock solution or an aqueous solution at 10% by weight or the like.
A 10% by weight aqueous solution of each spreading component was prepared, and the contact angle when a droplet of the aqueous solution was put on a stainless steel plate was measured with a contact angle meter (CAX-150 manufactured by Kyowa Interface Science Co., Ltd.) by a θ/2 method in accordance with the method described in JIS R3257 (1999).
Consider `CCCCCCCCCCCC[N+](C)(C)C.[Cl-]` [compound 4, Lauryl trimethyl ammonium chloride], for which the “Contact angle (°) of agent” value is reported as 36 °.
On to `CCCCCCCCCCCCOS(=O)(=O)[O-].[Na+]` [compound 3, Sodium lauryl sulfate], for which the “Contact angle (°) of agent” value was 38 °.
For “Polyoxyethylene lauryl ether [compound 8]”, the “Contact angle (°) of agent” value is 38 °.
Consider “Monolauric acid polyethylene glycol [compound 10]”, for which the “Contact angle (°) of agent” value was determined as 39 °.
For `CCCCCCCCCCCCc1ccc(S(=O)(=O)[O-])cc1.[Na+]` [compound 1, Sodium dodecylbenzenesulfonate], the “Contact angle (°) of agent” value was determined as 25 °.
For “Polyethylene glycol monolaurate [compound 9]”, the “Contact angle (°) of agent” value was 34 °.
